# Values of other authors, collected in patent US20060111347A1, “Substituted sulfones and methods of use” (AMGEN INC., priority 2004, published 2006).
# No end group written: not given here.
# Conditions: degraded by peptidases
sequence,measurement,value
"RPPGFSPFR [BK, Bradykinin]",half-life of BK in plasma,approximately 17 seconds
